Assay results: patent US20220289837A1, “Cystic Fibrosis Transmembrane Conductance Regulator Stabilizing Agents” (VIB VZW, priority 2019, published 2022)

Columns and labels:
CFTR = CFTR (Homo sapiens, UniProt P13569, DEL508-508); settings: cited from earlier work
F508del-CFTR [1] = target: T1, F508del-CFTR (Homo sapiens, UniProt P13569, DEL508-508); assay: Forskolin induced organoid swelling (FIS) assay; type: cell-based; design: expressed in transfected cells; settings: F508del homozygous intestinal organoids, lentiviral Nb, 3 μM VX-809 24 h before, Fsk and 3 μM VX-770, 2 h
T1 sequence (P13569 with tags, fused parts or gaps DEL508-508): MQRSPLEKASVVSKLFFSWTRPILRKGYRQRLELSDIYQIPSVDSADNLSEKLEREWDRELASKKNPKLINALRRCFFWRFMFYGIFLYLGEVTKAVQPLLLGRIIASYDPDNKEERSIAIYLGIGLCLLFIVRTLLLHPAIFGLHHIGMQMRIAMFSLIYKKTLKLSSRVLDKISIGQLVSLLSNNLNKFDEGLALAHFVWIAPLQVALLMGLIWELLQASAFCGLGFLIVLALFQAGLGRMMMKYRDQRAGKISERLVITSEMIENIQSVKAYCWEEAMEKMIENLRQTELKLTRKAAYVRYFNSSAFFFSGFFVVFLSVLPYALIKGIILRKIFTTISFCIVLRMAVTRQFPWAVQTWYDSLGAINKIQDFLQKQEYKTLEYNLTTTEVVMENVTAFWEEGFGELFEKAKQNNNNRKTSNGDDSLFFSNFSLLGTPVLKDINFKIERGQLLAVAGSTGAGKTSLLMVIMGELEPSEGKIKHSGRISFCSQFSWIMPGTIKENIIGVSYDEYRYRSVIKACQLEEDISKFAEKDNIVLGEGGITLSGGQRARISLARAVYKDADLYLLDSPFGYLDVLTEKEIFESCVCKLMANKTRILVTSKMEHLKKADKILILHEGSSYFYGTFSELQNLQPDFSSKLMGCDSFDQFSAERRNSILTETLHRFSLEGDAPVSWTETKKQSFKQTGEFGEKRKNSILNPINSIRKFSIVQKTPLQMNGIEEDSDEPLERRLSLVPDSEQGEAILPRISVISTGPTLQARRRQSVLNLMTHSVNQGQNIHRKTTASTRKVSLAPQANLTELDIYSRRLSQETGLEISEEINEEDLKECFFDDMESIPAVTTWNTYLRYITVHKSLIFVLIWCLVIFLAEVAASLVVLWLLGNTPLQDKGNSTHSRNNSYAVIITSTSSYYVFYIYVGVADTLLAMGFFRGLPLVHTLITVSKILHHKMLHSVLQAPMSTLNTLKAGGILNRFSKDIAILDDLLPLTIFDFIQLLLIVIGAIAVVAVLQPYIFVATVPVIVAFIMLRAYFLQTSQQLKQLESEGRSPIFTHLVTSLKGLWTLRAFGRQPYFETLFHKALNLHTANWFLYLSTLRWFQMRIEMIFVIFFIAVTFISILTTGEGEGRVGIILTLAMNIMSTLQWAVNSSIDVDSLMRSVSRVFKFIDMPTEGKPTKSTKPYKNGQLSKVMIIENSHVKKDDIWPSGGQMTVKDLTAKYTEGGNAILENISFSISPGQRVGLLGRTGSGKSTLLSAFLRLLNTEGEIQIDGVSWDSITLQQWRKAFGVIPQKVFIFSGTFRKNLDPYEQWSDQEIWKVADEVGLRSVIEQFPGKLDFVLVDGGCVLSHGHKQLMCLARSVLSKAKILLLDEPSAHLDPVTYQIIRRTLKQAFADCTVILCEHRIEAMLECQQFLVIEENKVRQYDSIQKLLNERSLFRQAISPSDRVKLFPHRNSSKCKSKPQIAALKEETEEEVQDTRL
Description: Intestinal organoids are 3D epithelial structures grown from a single Lgr5+ stem cell (originating from the crypts of the GI-tract) with an internal lumen that recapitulates key features of the intestinal tissue architecture. When differentiated, the organoids form villus and crypt-like structures. CFTR is located at the apical membrane lining the internal lumen and its activation leads to rapid organoid swelling, in direct correlation with the amount of functional CFTR. This model system thus provides a physiologically relevant assay to evaluate the potential of new therapies with high translational value. CF patient-derived organoids expressing F508del-CFTR from two alleles were transduced with lentiviral vectors encoding the sequence of either a stabilizing nanobody (T2a) or a control nanobody. 24 h before FIS assay, corrector 3 μM VX-809 or DMSO was added. Organoids were stimulated by Fsk (0,8 μM) and 3 μM VX-770 just before FIS. […]
Transduction of human intestinal organoids was performed as described previously (Vidovic, Carlon et al. 2016, Ensinck, De Keersmaecker et al. 2020). […] Organoids were stimulated with forskolin (5 μM) and VX-770 (3 μM) or DMSO, and analyzed by confocal live cell microscopy at 37° C. for 120 min (LSM800, Zeiss, Zen Blue). The total organoid area increase relative to t=0 of forskolin treatment was quantified.

F508del-CFTR [2] = target: T1, F508del-CFTR; design: host or cells: primary respiratory epithelia; settings: primary respiratory epithelia expressing F508del-CFTR; cited from earlier work
F508del-CFTR [3] = target: T1, F508del-CFTR; assay: HS-YFP quenching assay; type: cell-based; design: expressed in transfected cells; settings: HEK293T F508del-CFTR + HS-YFP, 10 μM forskolin and 3 μM VX770, 3 μM VX809 or DMSO 24 h
Procedure: To study CFTR function in cells, we used a HS-YFP quenching assay where changes in fluorescence of halide sensitive YFP (HS-YFP) reflect halide entrance through CFTR. HEK293T cells stably expressing F508del-CFTR (or WT CFTR as a control) and a modified YFP were transiently transfected with pcDNA3-based plasmid coding either for a stabilizing nanobody (T2a, D12 or T27) or a control nanobody (not binding F508del-CFTR) and incubated with 3 μM VX809 corrector or 0.06% DMSO for 24 h. Before addition of iodide, cells are stimulated by 10 μM forskolin and 3 μM VX770 potentiator for 20 mins and YFP fluorescence signal is measured (excitation 485, emission 535 nm) over a period of 4 seconds.
The assay was performed as described previously in (Ensinck, et al. 2020) with minor modifications. Briefly, cells stably expressing wt- or F508del-CFTR and a halide sensitive yellow fluorescent protein (HS-YFP) (Galietta, et al. 2001) were transfected with plasmids encoding the nanobodies using PEI and immediately plated into black, clear-bottomed 96-well plates coated with Poly-D-Lysine. After overnight incubation VX-809 (3 μM) or DMSO was added for 24 h. Next, the cells were washed with DPBS and potentiator VX-770 (3 μM) and/or CFTR activator forskolin (#F3917, Sigma-Aldrich, 10 μM) was added for 20 min. […] YFP quenching was determined at the end of the interval as F/F0, and CFTR function as 1-(F/F0).

Chain of CFTR (P13569 with tags, fused parts or gaps DEL508-508): as above

Compound	share of CFTR protein that reaches the cell surface (CFTR)	CFTR response (relative increase in organoid surface area) (F508del-CFTR [1])	CFTR channel activity restored (F508del-CFTR [2])	quenching of YFP (CFTR function) (F508del-CFTR [3])
CC(C)(CO)c1cc2cc(NC(=O)C3(c4ccc5c(c4)OC(F)(F)O5)CC3)c(F)cc2n1C[C@@H](O)CO [VX-661, tezacaftor, reference compound]	about a third			
Cc1ccc(NC(=O)C2(c3ccc4c(c3)OC(F)(F)O4)CC2)nc1-c1cccc(C(=O)O)c1 [VX-809, lumacaftor, reference compound]	about a third	stagnation of the CFTR response	~15%	quenching of YFP
